Experimental data reported in patent US7425640B2, “Substituted 5-carboxyamide pyrazoles and [1,2,4]triazoles as antiviral agents” (priority 2004, dated 2008).
Where two headings read alike, the source gives them in different places.

Target: HCV RNA-dependent RNA polymerase NS5B (Δ21) (Hepatitis C virus genotype 1b, UniProt P26663)
Assay: Assay for HCV RNA-dependent RNA polymerase activity (SPA, [3H]-GTP incorporation)
Type: biochemical
Settings: 50 nM NS5B (Δ21)
Procedure: Inhibitory activity of the present compounds against HCV RNA-dependent RNA polymerase was assayed according to the methods disclosed in United States Patent Application US2004/038993, content of which is incorporated herein by reference; and those described in Ferrari, E.; Wright-Minogue, J.; Fang, J. W. S.; Baroudy, B. M.; Lau, J. Y. N.; Hong, Z. J. Virol. 1999, 73, 1649.
Briefly, 50 μl reactions containing 20 mM HEPES (pH 7.3), 7.5 mM DTT, 20 units/ml RNasIN, 0.5 μg/ml biotinylated oligoG12, 5 μg/ml polyC, 5 μM GTP, 20 μCi/ml [^3H]-GTP, 10 mM MgCl2, 60 mM NaCl, 100 μg/ml BSA, and 50 nM NS5B (Δ21) were incubated at room temperature for three hours in 96-well plates with or without test compounds. Assay was terminated by the addition of 50 μl 10 mg/ml streptavidin-coated SPA beads supplemented with 100 mM EDTA, and the incorporation of labeled GTP determined by a TopCount Scintillation Counter. IC50 values were calculated from single experiments using 11 serial 2-fold dilutions (0.05-50 μM), and data were considered reliable only when the IC50 value of a positive internal control was within standard deviation range.

[1] = read-out: Δ21 Activity (IC50 μM), class symbols
[2] = Δ21 Activity (IC50 μM), class symbols
[3] = Δ21 Activity (IC50 μM), numeric values

Sequence of HCV RNA-dependent RNA polymerase NS5B (Δ21) (P26663 2420-2989, stated change not applied): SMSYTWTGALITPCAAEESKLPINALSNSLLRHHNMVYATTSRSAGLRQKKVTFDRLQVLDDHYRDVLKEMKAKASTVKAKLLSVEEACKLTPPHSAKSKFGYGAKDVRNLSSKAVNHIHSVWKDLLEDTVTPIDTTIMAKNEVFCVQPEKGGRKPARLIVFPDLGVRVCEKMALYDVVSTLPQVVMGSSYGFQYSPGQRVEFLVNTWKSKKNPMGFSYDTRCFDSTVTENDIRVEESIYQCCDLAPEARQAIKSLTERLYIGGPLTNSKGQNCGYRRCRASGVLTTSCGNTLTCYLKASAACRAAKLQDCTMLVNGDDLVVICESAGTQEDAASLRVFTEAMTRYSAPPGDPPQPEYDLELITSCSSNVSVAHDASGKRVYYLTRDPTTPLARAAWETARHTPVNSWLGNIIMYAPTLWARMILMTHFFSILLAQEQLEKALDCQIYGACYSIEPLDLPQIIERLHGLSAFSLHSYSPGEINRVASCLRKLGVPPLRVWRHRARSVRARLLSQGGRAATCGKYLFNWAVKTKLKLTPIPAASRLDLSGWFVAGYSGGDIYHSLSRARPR

Row | SMILES | IC50 [1] | IC50 [2] | further results
1 | O=C(Cn1nc(C(=O)NCCCc2ccccc2)cc1C(=O)N[C@H]1CCCC[C@@H]1OCc1ccccc1)N[C@H]1CCCC[C@@H]1OCc1ccccc1 [Compound 104] | 0.1 to 1 µM | – | –
2 | O=C(Cn1nc(-c2nnn[nH]2)cc1C(=O)Nc1ccccc1OCc1ccccc1)N[C@H]1CCCC[C@@H]1OCc1ccccc1 [Compound 25] | – | 0.05 to 0.1 µM | –
3 | CCOC(=O)c1cc(C(=O)N[C@H]2CCCC[C@@H]2NCc2ccccc2)n(CC(=O)N[C@H]2CCCC[C@@H]2OCc2ccccc2)n1 [Compound 174] | – | > 1 µM | –
4 | Cc1c(S(=O)(=O)Nc2cc(C(=O)N[C@H]3CCCC[C@@H]3OCc3ccccc3)n(CC(=O)N[C@H]3CCCC[C@@H]3OCc3ccccc3)n2)sc2ccc(Cl)cc12 [Compound 90] | 0.1 to 1 µM | – | –
5 | O=C(Cn1nc(NS(=O)(=O)c2ccc(I)cc2)cc1C(=O)N[C@H]1CCCC[C@@H]1OCc1ccccc1)N[C@H]1CCCC[C@@H]1OCc1ccccc1 [Compound 19] | – | 0.05 to 0.1 µM | –
6 | Cc1ccc(OCc2ccccc2)c(NC(=O)c2cc(-c3nnn[nH]3)nn2CC(=O)N[C@H]2CCCC[C@@H]2OCc2ccccc2)c1 [drawing 240] | – | – | IC50 [3]: 0.02 µM
7 | Cc1ccc(OCC2CCCCC2)c(NC(=O)c2cc(C(=O)NC#N)nn2CC(=O)N[C@H]2CCCC[C@@H]2OCc2ccccc2)c1 [Compound 4] | – | < 0.05 µM | –
8 | NC(=O)c1cc(C(=O)N[C@H]2CCCC[C@@H]2OCc2ccccc2)n(CC(=O)N[C@H]2CCCC[C@@H]2OCc2ccccc2)n1 [Compound 157] | 0.1 to 1 µM | – | –
9 | Cc1ccc(OCc2ccccc2)c(NC(=O)c2cc(C(N)=O)nn2CC(=O)N[C@H]2CCCC[C@@H]2OCc2ccccc2)c1 [Compound 98] | 0.1 to 1 µM | – | –
10 | O=C(Cn1nc(C(=O)NCC2CCCCC2)cc1C(=O)N[C@H]1CCCC[C@@H]1OCc1ccccc1)N[C@H]1CCCC[C@@H]1OCc1ccccc1 [Compound 137] | 0.1 to 1 µM | – | –
11 | O=C(Cn1nc(NS(=O)(=O)c2ccc(F)cc2F)cc1C(=O)N[C@H]1CCCC[C@@H]1OCc1ccccc1)N[C@H]1CCCC[C@@H]1OCc1ccccc1 [Compound 79] | 0.1 to 1 µM | – | –
12 | O=C(Cn1nc(NS(=O)(=O)Cc2ccccc2)cc1C(=O)N[C@H]1CCCC[C@@H]1OCc1ccccc1)N[C@H]1CCCC[C@@H]1OCc1ccccc1 [Compound 84] | 0.1 to 1 µM | – | –
13 | COc1cccc(NC(=O)c2cc(C(=O)N[C@H]3CCCC[C@@H]3OCc3ccccc3)n(CC(=O)N[C@H]3CCCC[C@@H]3OCc3ccccc3)n2)c1 [Compound 16] | – | < 0.05 µM | –
14 | O=C(Cn1nc(C(=O)N2CCc3ccccc3C2)cc1C(=O)N[C@H]1CCCC[C@@H]1OCc1ccccc1)N[C@H]1CCCC[C@@H]1OCc1ccccc1 [Compound 51] | 0.1 to 1 µM | – | –
15 | O=C(Cn1nc(C(=O)N2CCN(Cc3ccccc3)CC2)cc1C(=O)N[C@H]1CCCC[C@@H]1OCc1ccccc1)N[C@H]1CCCC[C@@H]1OCc1ccccc1 [Compound 156] | 0.1 to 1 µM | – | –
16 | O=C(Cn1nc(C(=O)Nc2ccccc2-c2ccccc2)cc1C(=O)N[C@H]1CCCC[C@@H]1OCc1ccccc1)N[C@H]1CCCC[C@@H]1OCc1ccccc1 [Compound 179] | – | > 1 µM | –
17 | CCOC(=O)c1cc(C(=O)N[C@H]2CCCC[C@@H]2OCc2ccccc2)n(CC(=O)Nc2ccccc2Oc2ccc(Cl)c(C)c2)n1 [Compound 136] | 0.1 to 1 µM | – | –
18 | Cc1ccc(OCC2CCC2)c(NC(=O)c2cc(C(=O)O)nn2CC(=O)N[C@H]2CCCC[C@@H]2OCc2ccccc2)c1 [drawing 248] | – | – | IC50 [3]: 0.055 µM
19 | CC(O)(c1ccc(Cl)cc1)c1cc(C(=O)N[C@H]2CCCC[C@@H]2OCc2ccccc2)n(CC(=O)N[C@H]2CCCC[C@@H]2OCc2ccccc2)n1 (stereo partly shown) [Compound 180] | – | > 1 µM | –
20 | Cc1ccc(OCC2CCCCC2)c(NC(=O)c2cc(C(=O)NC#N)nn2CC(=O)N[C@H]2CCCC[C@@H]2OCc2ccccc2)c1 [drawing 243] | – | – | IC50 [3]: 0.037 µM
21 | CON(C)C(=O)c1cc(C(=O)N[C@H]2CCCC[C@@H]2OCc2ccccc2)n(CC(=O)N[C@H]2CCCC[C@@H]2OCc2ccccc2)n1 [Compound 109] | 0.1 to 1 µM | – | –
22 | O=C(Cn1nc(C(=O)NCCc2ccc(Cl)cc2)cc1C(=O)N[C@H]1CCCC[C@@H]1OCc1ccccc1)N[C@H]1CCCC[C@@H]1OCc1ccccc1 [Compound 129] | 0.1 to 1 µM | – | –
23 | O=C(Cn1nc(C(=O)NCc2cccc3ccccc23)cc1C(=O)N[C@H]1CCCC[C@@H]1OCc1ccccc1)N[C@H]1CCCC[C@@H]1OCc1ccccc1 [Compound 22] | – | 0.05 to 0.1 µM | –
24 | O=C(Cn1nc(NS(=O)(=O)c2ccc(F)cc2)cc1C(=O)N[C@H]1CCCC[C@@H]1OCc1ccccc1)N[C@H]1CCCC[C@@H]1OCc1ccccc1 [Compound 35] | – | 0.05 to 0.1 µM | –
25 | O=C(Cn1nc(C(=O)N(c2ccccc2)c2ccccc2)cc1C(=O)N[C@H]1CCCC[C@@H]1OCc1ccccc1)N[C@H]1CCCC[C@@H]1OCc1ccccc1 [Compound 159] | 0.1 to 1 µM | – | –

Row | SMILES | IC50 [1] | IC50 [2] | further results
26 | O=C(Cn1nc(C(=O)NC2CCN(Cc3ccccc3)CC2)cc1C(=O)N[C@H]1CCCC[C@@H]1OCc1ccccc1)N[C@H]1CCCC[C@@H]1OCc1ccccc1 [Compound 192] | – | > 1 µM | –
27 | O=C(Cn1nc(NS(=O)(=O)c2ccc(Cl)c(Cl)c2)cc1C(=O)N[C@H]1CCCC[C@@H]1OCc1ccccc1)N[C@H]1CCCC[C@@H]1OCc1ccccc1 [Compound 61] | 0.1 to 1 µM | – | –
28 | O=C(Cn1nc(NS(=O)(=O)c2ccc(Cl)cc2)cc1C(=O)N[C@H]1CCCC[C@@H]1OCc1ccccc1)N[C@H]1CCCC[C@@H]1OCc1ccccc1 [drawing 250] | – | – | IC50 [3]: 0.036 µM
29 | O=C(Cn1nc(NS(=O)(=O)c2ccc3ccccc3c2)cc1C(=O)N[C@H]1CCCC[C@@H]1OCc1ccccc1)N[C@H]1CCCC[C@@H]1OCc1ccccc1 [Compound 33] | – | 0.05 to 0.1 µM | –
30 | CC(CCc1ccccc1)NC(=O)c1cc(C(=O)N[C@H]2CCCC[C@@H]2OCc2ccccc2)n(CC(=O)N[C@H]2CCCC[C@@H]2OCc2ccccc2)n1 (stereo partly shown) [Compound 101] | 0.1 to 1 µM | – | –
31 | O=C(Cn1nc(C(=O)Nc2ccc(-c3ccccc3)cc2)cc1C(=O)N[C@H]1CCCC[C@@H]1OCc1ccccc1)NC1CCCC[C@@H]1OCc1ccccc1 (stereo partly shown) [Compound 203] | – | > 1 µM | –
32 | O=C(Cn1nc(NS(=O)(=O)c2cccc(F)c2)cc1C(=O)N[C@H]1CCCC[C@@H]1OCc1ccccc1)N[C@H]1CCCC[C@@H]1OCc1ccccc1 [Compound 31] | – | 0.05 to 0.1 µM | –
33 | O=C(Cn1nc(C(=O)NCc2ccc(Cl)cc2)cc1C(=O)N[C@H]1CCCC[C@@H]1OCc1ccccc1)N[C@H]1CCCC[C@@H]1OCc1ccccc1 [Compound 46] | – | 0.05 to 0.1 µM | –
34 | O=C(Cn1nc(C(=O)NC2CCCC2)cc1C(=O)N[C@H]1CCCC[C@@H]1OCc1ccccc1)N[C@H]1CCCC[C@@H]1OCc1ccccc1 [Compound 128] | 0.1 to 1 µM | – | –
35 | CCOC(=O)c1cc(C(=O)N[C@H]2CCCC[C@@H]2OCc2ccccc2)n(CC(=O)Nc2cc(C)ccc2OCC2CCCC2)n1 [Compound 99] | 0.1 to 1 µM | – | –
36 | O=C(Cn1nc(C(=O)Nc2ccccc2)cc1C(=O)N[C@H]1CCCC[C@@H]1OCc1ccccc1)N[C@H]1CCCC[C@@H]1OCc1ccccc1 [Compound 54] | 0.1 to 1 µM | – | –
37 | O=C(Cn1nc(C(=O)NOCc2cccc3ccccc23)cc1C(=O)N[C@H]1CCCC[C@@H]1OCc1ccccc1)N[C@H]1CCCC[C@@H]1OCc1ccccc1 [Compound 68] | 0.1 to 1 µM | – | –
38 | O=C(Cn1nc(-c2nnn[nH]2)cc1C(=O)N[C@H]1CCCC[C@@H]1OCc1ccccc1)N[C@H]1CCCC[C@@H]1OCc1ccccc1 | – | – | IC50 [3]: 0.05 µM
39 | O=C(Cn1nc(C(=O)O)cc1C(=O)Nc1ccc(F)cc1OCC1CCCCC1)N[C@H]1CCCC[C@@H]1OCc1ccccc1 [Compound 10] | – | < 0.05 µM | –
40 | CCCCNC(=O)c1cc(C(=O)N[C@H]2CCCC[C@@H]2OCc2ccccc2)n(CC(=O)N[C@H]2CCCC[C@@H]2OCc2ccccc2)n1 [Compound 110] | 0.1 to 1 µM | – | –
41 | CCCCC(CC)CNC(=O)c1cc(C(=O)N[C@H]2CCCC[C@@H]2OCc2ccccc2)n(CC(=O)N[C@H]2CCCC[C@@H]2OCc2ccccc2)n1 (stereo partly shown) [Compound 194] | – | > 1 µM | –
42 | CC(C)S(=O)(=O)Nc1cc(C(=O)N[C@H]2CCCC[C@@H]2OCc2ccccc2)n(CC(=O)N[C@H]2CCCC[C@@H]2OCc2ccccc2)n1 [Compound 78] | 0.1 to 1 µM | – | –
43 | O=C(Cn1nc(C(=O)NCCCN2CCCC2=O)cc1C(=O)N[C@H]1CCCC[C@@H]1OCc1ccccc1)N[C@H]1CCCC[C@@H]1OCc1ccccc1 [Compound 168] | – | > 1 µM | –
44 | O=C(Cn1nc(C(=O)NCC(c2ccccc2)c2ccccc2)cc1C(=O)N[C@H]1CCCC[C@@H]1OCc1ccccc1)NC1CCCC[C@@H]1OCc1ccccc1 (stereo partly shown) [Compound 204] | – | > 1 µM | –
45 | Cc1nn(C)c(Cl)c1S(=O)(=O)Nc1cc(C(=O)N[C@H]2CCCC[C@@H]2OCc2ccccc2)n(CC(=O)N[C@H]2CCCC[C@@H]2OCc2ccccc2)n1 [Compound 112] | 0.1 to 1 µM | – | –
46 | O=C(Cn1nc(C(=O)NCc2cccnc2)cc1C(=O)N[C@H]1CCCC[C@@H]1OCc1ccccc1)N[C@H]1CCCC[C@@H]1OCc1ccccc1 [Compound 142] | 0.1 to 1 µM | – | –
47 | C[C@@H](NC(=O)c1cc(C(=O)N[C@H]2CCCC[C@@H]2OCc2ccccc2)n(CC(=O)N[C@H]2CCCC[C@@H]2OCc2ccccc2)n1)c1cccc2ccccc12 [drawing 246] | – | – | IC50 [3]: 0.15 µM
48 | CC(C)(O)c1cc(C(=O)N[C@H]2CCCC[C@@H]2OCc2ccccc2)n(CC(=O)N[C@H]2CCCC[C@@H]2OCc2ccccc2)n1 [Compound 190] | – | > 1 µM | –
49 | C=CCNC(=O)c1cc(C(=O)N[C@H]2CCCC[C@@H]2OCc2ccccc2)n(CC(=O)N[C@H]2CCCC[C@@H]2OCc2ccccc2)n1 [Compound 111] | 0.1 to 1 µM | – | –
